Here are results for 14 molecules from patent publication US20250115597A1, “TYK2 INHIBITORS AND COMPOSITIONS AND METHODS THEREOF” (LYNK PHARMACEUTICALS CO. LTD., priority 2021, published 2025).

pIC50: −log10 of the molar value. Like-named read-outs stand apart in the source and are kept apart here.

One series deals with T1, TYK2-JH2 domain (Homo sapiens, UniProt P29597).
T1 construct: IC50 on JH2 domain activity (nM)
Nature of the series: Binding activity test for JH2 domain of TYK2 (Tb-antibody/tracer FRET). Particulars: for JAK1/TYK2 selectivity: ratio JAK1-JH2 IC50 / TYK2-JH2 IC50. As for the experimental part: (§1) Binding Activity Test for […] Domain of JAK1 and TYK2 The compounds are prepared in DMSO for 200× top dose, then serial dilute it with 27-fold for 3 more points. Add 8 μL/well in echo source plate, echo will add 75 nL/well with 3-fold serial dilution for 11 points in assay plate. 75 nL DMSO for high control and low control. […] For low control, add 5 μL/well assay buffer. And then spin down at 1000 rpm and centrifuge for 30 seconds. After enzyme system prepared, add 5 μL of Tb-antibody solution into each wells of assay plate. Spin down at 1000 rpm and centrifuge for 30 sec. After Tb-antibody added, also add 5 μL of tracer into the assay plate. Spin down at 1000 rpm and centrifuge for 30 sec. Incubate for 60 mins at 25° C. firstly and then continue to incubate the plate at 4° C. overnight. Read by envision in FRET mode. The Luminescence value was recorded by a multi-label reader Envision (PerkinElmer).

For another series, the target named is T2, JAK1-JH2 domain (Homo sapiens, UniProt P23458).
T2 construct: IC50 on JH2 domain activity (nM)
T2 sequence (P23458 583-855 limits assumed): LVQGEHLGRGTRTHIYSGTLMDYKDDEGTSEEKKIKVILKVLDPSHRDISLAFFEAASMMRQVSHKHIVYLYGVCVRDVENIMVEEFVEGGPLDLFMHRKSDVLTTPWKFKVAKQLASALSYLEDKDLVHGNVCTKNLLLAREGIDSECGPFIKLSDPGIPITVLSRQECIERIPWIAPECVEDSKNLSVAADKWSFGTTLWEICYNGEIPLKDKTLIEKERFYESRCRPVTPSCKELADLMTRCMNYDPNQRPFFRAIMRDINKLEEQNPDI
Nature of the series: Binding activity test for JH2 domain of JAK1 (Tb-antibody/tracer FRET). As for the experimental part:
as §1

Series [1] has as its target T3, Ba/F3-FL-TYK2-P760L cells (Homo sapiens, UniProt P29597, P760L, cells depend on it).
T3 construct: BaF3-FL-T2P760L (nM)
The series is described as follows: Anti-proliferative assay, Ba/F3-FL-TYK2-P760L cells (Cell-Titer Glo). Format: cell-based. Particulars: 72 h, read-out: BaF3-FL-T2P760L IC50. An outline of the steps:
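Compound exposure ran 72 h at 37 °C in 5% CO2 across nine 3-fold concentrations from a 20 μM top dose, added 24 h after seeding 2000 cells/well.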

The nature of series [2]: Microsomal metabolic stability assay. The format is in vitro ADME. As to conditions: pH 7.4, 0.5 mg/mL protein, 1 μM compound. An outline of the steps:
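Parent loss was tracked by LC/MS/MS at 0, 5, 15, 30 and 45 min, with half-life derived from the ln(% remaining)–time slope. Incubation at 37 °C, pH 7.4 phosphate/EDTA buffer: 0.5 mg/mL microsomes, 1 μM compound, NADPH-regenerated (2 mM).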

Where [3] appears, read: dog liver microsomes, read-out: Dog LM Clint.
Where [4] appears, read: dog liver microsomes, read-out: Dog LM T½.
The mark [5] stands for this setting: human liver microsomes, read-out: Human LM Clint.
The mark [6] stands for this setting: human liver microsomes, read-out: Human LM T½.
The mark [7] stands for this setting: rat liver microsomes, read-out: Rat LM Clint.
The mark [8] stands for this setting: rat liver microsomes, read-out: Rat LM T½.

T3 sequence (P29597 whole entry P760L): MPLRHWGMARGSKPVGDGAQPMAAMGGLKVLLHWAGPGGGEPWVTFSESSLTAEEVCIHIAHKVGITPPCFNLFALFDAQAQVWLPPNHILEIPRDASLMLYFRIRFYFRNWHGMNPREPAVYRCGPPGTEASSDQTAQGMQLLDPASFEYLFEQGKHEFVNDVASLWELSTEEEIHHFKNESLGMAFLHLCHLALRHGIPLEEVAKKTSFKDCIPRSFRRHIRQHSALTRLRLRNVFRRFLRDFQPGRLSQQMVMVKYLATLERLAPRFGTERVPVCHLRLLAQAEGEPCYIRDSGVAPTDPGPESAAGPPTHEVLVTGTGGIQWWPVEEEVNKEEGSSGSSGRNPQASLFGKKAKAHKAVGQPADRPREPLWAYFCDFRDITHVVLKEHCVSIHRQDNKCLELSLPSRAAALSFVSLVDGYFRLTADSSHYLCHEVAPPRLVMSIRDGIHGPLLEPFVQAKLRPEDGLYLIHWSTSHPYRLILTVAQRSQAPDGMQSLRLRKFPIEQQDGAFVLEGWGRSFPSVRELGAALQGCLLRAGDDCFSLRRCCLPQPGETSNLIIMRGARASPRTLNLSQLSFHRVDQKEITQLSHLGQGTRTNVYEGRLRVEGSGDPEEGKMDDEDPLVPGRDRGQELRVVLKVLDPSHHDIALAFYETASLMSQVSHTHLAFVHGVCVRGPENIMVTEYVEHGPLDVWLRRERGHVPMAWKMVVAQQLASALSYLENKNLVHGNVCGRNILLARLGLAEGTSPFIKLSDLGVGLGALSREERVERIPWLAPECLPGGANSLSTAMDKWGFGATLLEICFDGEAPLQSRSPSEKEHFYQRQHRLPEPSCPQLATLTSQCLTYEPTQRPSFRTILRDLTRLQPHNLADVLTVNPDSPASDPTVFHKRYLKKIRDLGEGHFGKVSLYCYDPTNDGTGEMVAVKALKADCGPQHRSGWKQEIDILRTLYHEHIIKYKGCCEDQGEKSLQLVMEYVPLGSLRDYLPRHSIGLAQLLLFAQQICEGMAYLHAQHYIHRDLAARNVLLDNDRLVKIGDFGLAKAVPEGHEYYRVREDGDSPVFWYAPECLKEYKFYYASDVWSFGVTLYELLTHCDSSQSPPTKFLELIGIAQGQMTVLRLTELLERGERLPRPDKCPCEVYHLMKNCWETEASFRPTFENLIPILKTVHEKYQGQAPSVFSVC
T1 sequence (P29597 589-875 limits assumed): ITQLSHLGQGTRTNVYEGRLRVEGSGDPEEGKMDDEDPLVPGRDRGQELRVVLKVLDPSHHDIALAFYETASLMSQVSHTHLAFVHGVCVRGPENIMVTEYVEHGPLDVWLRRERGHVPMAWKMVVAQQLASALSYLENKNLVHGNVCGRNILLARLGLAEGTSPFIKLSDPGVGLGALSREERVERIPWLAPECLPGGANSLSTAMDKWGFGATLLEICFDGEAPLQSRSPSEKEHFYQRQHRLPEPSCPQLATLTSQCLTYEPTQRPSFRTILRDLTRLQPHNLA

Turning to `[2H]C([2H])([2H])NC(=O)c1cnc(NC(=O)[C@@H]2C[C@H]2F)cc1Nc1ccc2cnn(CC)c2c1OC` (relative stereo) [Example 241, 4-((1-Ethyl-7-methoxy-1H-indazol-6-yl)amino)-6-(trans-2-fluorocyclopropanecarboxamido)-N-(methyl-d3)nicotinamide], on TYK2-JH2 domain, the pIC50 (as a rule, −log10 of the IC50, conventionally taken in molar units) was 9.27 and the JAK1/TYK2 selectivity is reported as 28.7. Moreover, at JAK1-JH2 domain, the pIC50 was 7.81. Moreover, the GI50 in series [1] came out at 161 nM.

On to `[2H]C([2H])([2H])NC(=O)c1cnc(NC(=O)C2CC2)cc1Nc1cn(C)c2ncn([C@@H](C)C(F)(F)F)c(=O)c12` (single isomer, unassigned) [Example 234B, (S*)-6-(cyclopropanecarboxamido)-N-(methyl-d3)-4-((7-methyl-4-oxo-3-(1,1,1-trifluoropropan-2-yl)-4,7-dihydro-3H-pyrrolo[2,3-d]pyrimidin-5-yl)amino)nicotinamide], for which, at TYK2-JH2 domain, the pIC50 is 8.24 and the JAK1/TYK2 selectivity turned out to be 42.2. On JAK1-JH2 domain, the pIC50 was 6.61.

`[2H]C([2H])([2H])NC(=O)c1cnc(NC(=O)C2CC2)cc1Nc1cn(CC)c2ncn([C@H](C)C(F)(F)F)c(=O)c12` (single isomer, unassigned) [Example 254A, (R*)-6-(cyclopropanecarboxamido)-4-((7-ethyl-4-oxo-3-(1,1,1-trifluoropropan-2-yl)-4,7-dihydro-3H-pyrrolo[2,3-d]pyrimidin-5-yl)amino)-N-(methyl-d3)nicotinamide]: the pIC50 is 9.06 at TYK2-JH2 domain and 7.36 on JAK1-JH2 domain. Also, the JAK1/TYK2 selectivity on TYK2-JH2 domain was 50.81. The microsomal CLint at 1 μM was found to be 4.66 µL/min/mg in series [2] (setting [3]), 23 µL/min/mg in series [2] (setting [5]) and 39.4 µL/min/mg in series [2] (setting [7]). In addition, the half-life at 1 μM in series [2] (setting [4]) turned out to be 4.95 h; in series [2] (setting [6]), 1 h; in series [2] (setting [8]) it was 0.586 h.

With `[2H]C([2H])([2H])NC(=O)c1cnc(NC(=O)C2CC2)cc1Nc1cn(CC)c2ncn([C@@H](C)C(F)(F)F)c(=O)c12` (single isomer, unassigned) [Example 254B, (S*)-6-(cyclopropanecarboxamido)-4-((7-ethyl-4-oxo-3-(1,1,1-trifluoropropan-2-yl)-4,7-dihydro-3H-pyrrolo[2,3-d]pyrimidin-5-yl)amino)-N-(methyl-d3)nicotinamide], at TYK2-JH2 domain, the pIC50 is 7.93 and the JAK1/TYK2 selectivity worked out at 21.60. The molecule further showed a pIC50 on JAK1-JH2 domain of 6.60.

On TYK2-JH2 domain, `[2H]C([2H])([2H])NC(=O)c1nnc2cc1Nc1cc(cc(-c3ncn(C)n3)c1OC)COCc1cccc(n1)N2` [Example 68, 10-Methoxy-N-(methyl-d3)-11-(1-methyl-1H-1,2,4-triazol-3-yl)-15-oxa-2,4,5,8,21-pentaazatetracyclo[15.3.1.1^{3,7}.1^{9,13}]tricosa-1(21),3,5,7(23),9(22),10,12,17,19-nonaene-6-carboxamide] showed a pIC50 of 9.40. Also, in series [1], the GI50 was 42.1 nM. For the same molecule, the results for the microsomal CLint at 1 μM in series [2] (setting [3]), in series [2] (setting [5]) and in series [2] (setting [7]) were 11.4 µL/min/mg, 6.45 µL/min/mg and 47.1 µL/min/mg, respectively. Also, the half-life at 1 μM in series [2] (setting [4]) is 2.02 h; in series [2] (setting [6]) it was 3.58 h; in series [2] (setting [8]), 0.49 h.

In turn, `[2H]C([2H])([2H])NC(=O)c1cnc(NC(=O)C2CC2)cc1Nc1cn(C)c2ccn(CC)c(=O)c12` [Example 100, 6-(Cyclopropanecarbonylamino)-4-[(5-ethyl-1-methyl-4-oxo-pyrrolo[3,2-c]pyridin-3-yl)amino]-N-(methyl-d3)pyridine-3-carboxamide] gave a pIC50 at TYK2-JH2 domain of 9.05. In series [1], the GI50 was 374 nM. Besides, the microsomal CLint at 1 μM in series [2] (setting [3]) was less than 18.6 µL/min/mg; in series [2] (setting [5]) it was 28.6 µL/min/mg; in series [2] (setting [7]), 49.5 µL/min/mg. The figures for the half-life at 1 μM in series [2] (setting [4]), in series [2] (setting [6]) and in series [2] (setting [8]) were more than 3.1 h, 1.53 h and 0.794 h, respectively.

Turning to `[2H]C([2H])([2H])NC(=O)c1cnc(NC(=O)C2CC2)cc1Nc1cn(C)c2ccn(CC(F)(F)F)c(=O)c12` [Example 110, 6-(Cyclopropanecarboxamido)-N-(methyl-d3)-4-((1-methyl-4-oxo-5-(2,2,2-trifluoroethyl)-4,5-dihydro-1H-pyrrolo[3,2-c]pyridin-3-yl)amino)nicotinamide], the negative logarithm of the IC50 (pIC50) at TYK2-JH2 domain is 9.04. Further, the GI50 in series [1] was 102 nM. Further, the microsomal CLint at 1 μM in series [2] (setting [3]) turned out to be 15.9 µL/min/mg; in series [2] (setting [5]) it was 48.8 µL/min/mg; in series [2] (setting [7]) it was 73 µL/min/mg. Moreover, the half-life at 1 μM came to 1.45 h in series [2] (setting [4]), 0.473 h in series [2] (setting [6]) and 0.316 h in series [2] (setting [8]).

At TYK2-JH2 domain, `[2H]C([2H])([2H])NC(=O)c1cnc(Nc2ccn(C)n2)cc1Nc1ccc2cnn(C([2H])([2H])[2H])c2c1OC` [Example 154, 4-((7-Methoxy-1-(methyl-d3)-1H-indazol-6-yl)amino)-N-(methyl-d3)-6-((1-methyl-1H-pyrazol-3-yl)amino)nicotinamide] had a negative logarithm of the IC50 (pIC50) of 8.92. The GI50 in series [1] stood at 145 nM. Moreover, the microsomal CLint at 1 μM came to 16.8 µL/min/mg in series [2] (setting [3]), 31.6 µL/min/mg in series [2] (setting [5]) and 38.9 µL/min/mg in series [2] (setting [7]). The figures for the half-life at 1 μM in series [2] (setting [4]), in series [2] (setting [6]) and in series [2] (setting [8]) were 1.38 h, 0.732 h and 0.595 h, respectively.

On TYK2-JH2 domain, `[2H]C([2H])([2H])NC(=O)c1cnc(NC(=O)C2CC2)cc1Nc1cn(C)c2ccn(C(C)C(F)(F)F)c(=O)c12` (stereo not drawn) [Example 190, 6-(Cyclopropanecarboxamido)-N-(methyl-d3)-4-((1-methyl-4-oxo-5-(1,1,1-trifluoropropan-2-yl)-4,5-dihydro-1H-pyrrolo[3,2-c]pyridin-3-yl)amino)nicotinamide] gave a pIC50 of 8.39. The GI50 in series [1] was 78.3 nM. Moreover, the microsomal CLint at 1 μM came to 14.7 µL/min/mg in series [2] (setting [3]), 69.3 µL/min/mg in series [2] (setting [5]) and 46.4 µL/min/mg in series [2] (setting [7]). The figures for the half-life at 1 μM in series [2] (setting [4]), in series [2] (setting [6]) and in series [2] (setting [8]) were 1.57 h, 0.333 h and 0.498 h, respectively.

Take `[2H]C([2H])([2H])NC(=O)c1cnc(NC(=O)C2CC2)cc1Nc1cn(CCOC)c2ccn(CC)c(=O)c12` [Example 193, 6-(Cyclopropanecarboxamido)-4-((5-ethyl-1-(2-methoxyethyl)-4-oxo-4,5-dihydro-1H-pyrrolo[3,2-c]pyridin-3-yl)amino)-N-(methyl-d3)nicotinamide]: the negative-log IC50 (pIC50) on TYK2-JH2 domain is 8.85. For the same molecule, the GI50 in series [1] came out at 368 nM. In addition, the microsomal CLint at 1 μM is 11.2 µL/min/mg in series [2] (setting [3]), 10.8 µL/min/mg in series [2] (setting [5]) and 53.8 µL/min/mg in series [2] (setting [7]). Further, the half-life at 1 μM was 2.06 h in series [2] (setting [4]), 2.14 h in series [2] (setting [6]) and 0.43 h in series [2] (setting [8]).

In turn, `[2H]C([2H])([2H])NC(=O)c1cnc(NC(=O)C2CC2)cc1Nc1ncn2ncc(C)c2c1OC` [Example 279, 6-(Cyclopropanecarboxamido)-4-((4-methoxy-3-methylpyrazolo[1,5-c]pyrimidin-5-yl)amino)-N-(methyl-d3)nicotinamide] showed a pIC50 at TYK2-JH2 domain of 9.48. Also, in series [1], the GI50 stood at 70.1 nM.

The molecule `[2H]C([2H])([2H])NC(=O)c1cnc(NC(=O)C2CC2)cc1Nc1ncn2ncc(CC)c2c1OC` [Example 280, 6-(Cyclopropanecarboxamido)-4-((3-ethyl-4-methoxypyrazolo[1,5-c]pyrimidin-5-yl)amino)-N-(methyl-d3)nicotinamide] showed a pIC50 at TYK2-JH2 domain of 9.74. In series [1], the GI50 was 40.2 nM.

As to `[2H]C([2H])([2H])NC(=O)c1cnc(NC(=O)C2CC2)cc1Nc1ncn2ncc(Cl)c2c1OC` [Example 281, 4-((3-Chloro-4-methoxypyrazolo[1,5-c]pyrimidin-5-yl)amino)-6-(cyclopropanecarboxamido)-N-(methyl-d3)nicotinamide], the negative-log IC50 (pIC50) on TYK2-JH2 domain is 9.60. Also, in series [1], the GI50 was 48.2 nM.

Take `[2H]C([2H])([2H])NC(=O)c1cnc(NC(=O)C2CC2)cc1Nc1ncn2ncc(C#N)c2c1OC` [Example 282, 4-((3-Cyano-4-methoxypyrazolo[1,5-c]pyrimidin-5-yl)amino)-6-(cyclopropanecarboxamido)-N-(methyl-d3)nicotinamide]: the pIC50 on TYK2-JH2 domain is 9.57. In addition, the GI50 in series [1] is 75.2 nM.
